Source: PubChem BioAssay AID651806 (Broad Institute, 2012)
Calls of active or inactive are those of the source.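 How the source made its calls: active means AC50 no higher than twice the top valid tested dose, with signal falling as dose rises; inconclusive means flat fit with partial inhibition, or a poor-quality fit; inactive means the rest, plus effects in the rising direction.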

molecular target: Kelch-like ECH-associated protein 1 (Homo sapiens) (UniProt Q14145); assay: disruptors of Keap1/Nrf2 protein interaction – biochemical, fluorescence polarization, dry powder, set 3, dose response (AID 651806); conditions: Keap1 Kelch/FITC-Nrf2 peptide fluorescence polarization; at 50 µM (top of the series)
Sequence (Q14145 whole entry, looked up): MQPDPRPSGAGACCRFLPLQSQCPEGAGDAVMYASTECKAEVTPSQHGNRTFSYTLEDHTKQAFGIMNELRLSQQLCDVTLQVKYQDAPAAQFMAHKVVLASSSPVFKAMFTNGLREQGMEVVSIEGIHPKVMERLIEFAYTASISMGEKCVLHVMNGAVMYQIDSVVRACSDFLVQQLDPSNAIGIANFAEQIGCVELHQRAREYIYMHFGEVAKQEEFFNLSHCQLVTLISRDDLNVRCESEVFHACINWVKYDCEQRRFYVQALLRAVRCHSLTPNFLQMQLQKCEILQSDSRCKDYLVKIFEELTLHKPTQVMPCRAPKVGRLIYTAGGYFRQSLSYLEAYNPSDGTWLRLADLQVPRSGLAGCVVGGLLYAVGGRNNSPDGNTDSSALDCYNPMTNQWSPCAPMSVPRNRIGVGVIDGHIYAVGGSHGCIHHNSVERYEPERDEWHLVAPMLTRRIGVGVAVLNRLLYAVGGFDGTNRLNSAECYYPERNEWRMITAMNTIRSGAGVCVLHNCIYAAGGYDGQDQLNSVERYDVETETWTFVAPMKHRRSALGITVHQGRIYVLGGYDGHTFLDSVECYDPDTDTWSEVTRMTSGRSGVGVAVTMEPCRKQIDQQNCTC

Activity change, negative = inhibition, inactive:
O=C(O)[C@H]1C2C=CC(C2)[C@H]1C(=O)N1CCc2ccccc2C1CN1C(=O)c2ccccc2C1=O (stereo partly drawn), O=C(O)CC(=O)N1CCc2ccccc2C1CN1C(=O)c2ccccc2C1=O (stereo not drawn), O=C(O)C1CCCCC1C(=O)NCC1c2ccccc2CCN1C(=O)Cc1ccccc1 (stereo not drawn), O=C(O)[C@@H]1CCCN1C(=O)N1CCc2ccccc2[C@H]1CN1C(=O)c2ccccc2C1=O, O=C(NCCc1ccccc1)c1ccccc1C(=O)NC[C@@H]1c2ccccc2CCN1C(=O)C1CCCCC1C(=O)O (stereo partly drawn), COc1ccccc1CCNC(=O)[C@@H]1c2ccccc2CCN1C(=O)C1CCCCC1C(=O)O (stereo partly drawn), Cc1ccc(S(=O)(=O)NNc2nc(C(C(=O)OC(C)C)C(=O)C(F)(F)F)nc3ccccc23)cc1 (stereo not drawn), COC(=O)[C@@H]1CCCC[C@@H]1C(=O)N1CCc2ccccc2[C@@H]1CN1C(=O)c2ccccc2C1=O, O=C1c2ccccc2C(=O)N1C[C@H]1NCCc2ccccc21, Cc1ccc(S(=O)(=O)NC[C@@H]2c3ccccc3CCN2C(=O)[C@@H]2CCCC[C@@H]2C(=O)O)c(C)c1, CCOC(=O)C(C(=O)OCC)c1cc(CNS(=O)(=O)c2ccc(C)cc2C)c2ccccc2n1, O=C(Oc1cc(CN2C(=O)c3ccccc3C2=O)c2ccccc2[n+]1[O-])c1cccc(Cl)c1, Cc1ccc(S(=O)(=O)NC(=O)[C@@H]2c3ccccc3CCN2C(=O)[C@@H]2CCCC[C@@H]2C(=O)O)cc1, COC(=O)CNc1nc(NS(=O)(=O)c2c(C)cc(C)cc2C)c2ccccc2n1, O=C(O)c1ccccc1C(=O)NC[C@@H]1c2ccccc2CCN1C(=O)[C@@H]1CCCC[C@@H]1C(=O)O, C=CC(=O)NC[C@@H]1c2ccccc2CCN1C(=O)[C@@H]1CCCC[C@@H]1C(=O)O, O=C(O)CCCC(=O)N1CCc2ccccc2C1CN1C(=O)c2ccccc2C1=O (stereo not drawn), C[C@H](NC(=O)C1CCCC[C@H]1C(=O)O)c1ccccc1 (mixture of isomers), O=C(O)[C@H]1CCCC[C@H]1C(=O)N1CCc2ccccc2[C@H]1CNS(=O)(=O)c1ccccc1, O=C(O)C1CCCCC1C(=O)N1CCCCC1CN1C(=O)c2ccccc2C1=O (stereo not drawn), O=C(NCCCN1CCOCC1)c1ccccc1C(=O)NC[C@@H]1c2ccccc2CCN1C(=O)C1CCCCC1C(=O)O (stereo partly drawn), Cc1ccc(S(=O)(=O)NNc2nc(N3CC(O)CC3C(=O)O)nc3ccccc23)cc1 (stereo not drawn), O=C(O)C1CCCCC1C(=O)Nc1ccccc1CN1C(=O)c2ccccc2C1=O (stereo not drawn), COC(=O)C(C(=O)OC)c1cc(NS(=O)(=O)c2c(C)cc(C)cc2C)c2ccccc2c1O, Cc1cc(C)c(S(=O)(=O)Nc2nc(C(C(=O)OC(C)C)C(=O)C(F)(F)F)nc3ccccc23)c(C)c1 (stereo not drawn), O=C(NC[C@@H]1c2ccccc2CCN1C(=O)[C@@H]1CCCC[C@@H]1C(=O)O)c1ccc(CN2CCOCC2)cc1, O=C(O)C1CCCCC1C(=O)N1CCc2ccccc2[C@H]1C(=O)NC12CC3CC(CC(C3)C1)C2 (stereo partly drawn), Cc1ccc(S(=O)(=O)NNc2nc(NCC(N)=O)nc3ccccc23)cc1, O=C(O)[C@H]1CCCC[C@H]1C(=O)NC(CN1C(=O)c2ccccc2C1=O)c1ccccc1 (stereo partly drawn), O=C(NC[C@@H]1c2ccccc2CCN1C(=O)[C@@H]1CCCC[C@@H]1C(=O)O)c1ccccc1, CCOC(=O)Cc1nc(NS(=O)(=O)c2c(C)cc(C)cc2C)c2ccccc2n1, COC(=O)[C@H]1CCCC[C@H]1C(=O)N1CCc2ccccc2[C@H]1CN1C(=O)c2ccccc2C1=O, O=C(Cc1ccccc1)NC[C@@H]1c2ccccc2CCN1C(=O)[C@@H]1CCCC[C@@H]1C(=O)O, O=C(O)[C@H]1CCCC[C@H]1C(=O)N1CCc2ccccc2[C@H]1CNc1nc(Cl)nc2ccccc12, O=C(NC[C@@H]1c2ccccc2CCN1C(=O)[C@@H]1CCCC[C@@H]1C(=O)O)c1ccc(CCl)cc1, Cc1cc(C)c(S(=O)(=O)Nc2ncnc3ccccc23)c(C)c1, NC(=O)c1ccccc1C(=O)NC[C@@H]1c2ccccc2CCN1C(=O)[C@@H]1CCCC[C@@H]1C(=O)O, COc1ccc(CCN=C2C=C(NS(=O)(=O)c3c(C)cc(C)cc3C)c3ccccc3C2=O)cc1
